Experimental data as given in patent US20250312469A1 (CANGET BIOTEKPHARMA, priority 2024, published 2025).
Entries after “also recorded” stand apart in the source; their conditions may differ.

Legend:
[1] = tested on: other 109 ubiquitin-related proteins/enzymes; test: ProtoArray protein microarray probed with 3H-FL118; type: binding, human
Method: The flask was then immersed in silicone oil bath at 180° C.-190° C. for 6 hours. The tritium gas was removed. The reaction mixture was dissolved in 1 mL of DMSO and back-exchanged 10× with 50% ethanol. Injected directly to CapCeLL PAK C-18 column (4.6×250 mm), mobile phase 30% CH3CN, 0.1% TFA, flow 1 mL/min, U.V. =200 nm, r.t. =40 min. After purification, total activity was 5 mCi (solid) with a specificity of 5.6 Ci/mmol at a radiochemical purity of >97% for ^3H-FL118. […] The flask was then immersed in silicone oil bath at 190° C. for 24 h. The tritium gas was removed. The reaction mixture was dissolved in 1 mL of DMSO and back-exchanged 10× with 50% ethanol and injected directly to CapCeLL Pak C-18 column (4.6×250 mm), mobile phase 30% CH3CN, 0.1% TFA, […], U.V. =200 nm, r.t. =40 min. After purification total activity was 5 mCi (solid) with a specificity of 16.5 Ci/mmol at a radiochemical purity of ≥81% for ^3H-FL118.
Use of ^3H-FL118 as a radioactive probe to search FL118-binding proteins through screening of human protein microarray (ProtoArray R with 9,400 human proteins, Invitrogen): The study process includes the following steps.
1. Blocking the ProtoArray: (i) Immediately place the mailer containing the Human Protein Microarray v5.0 at 4° C. upon removal from storage at −20° C. and equilibrate the mailer at 4° C. for at least 15 minutes prior to use. […]

hERG = hERG (Homo sapiens, UniProt Q12809); test: cell-based
hERG, sequence (Q12809 whole entry): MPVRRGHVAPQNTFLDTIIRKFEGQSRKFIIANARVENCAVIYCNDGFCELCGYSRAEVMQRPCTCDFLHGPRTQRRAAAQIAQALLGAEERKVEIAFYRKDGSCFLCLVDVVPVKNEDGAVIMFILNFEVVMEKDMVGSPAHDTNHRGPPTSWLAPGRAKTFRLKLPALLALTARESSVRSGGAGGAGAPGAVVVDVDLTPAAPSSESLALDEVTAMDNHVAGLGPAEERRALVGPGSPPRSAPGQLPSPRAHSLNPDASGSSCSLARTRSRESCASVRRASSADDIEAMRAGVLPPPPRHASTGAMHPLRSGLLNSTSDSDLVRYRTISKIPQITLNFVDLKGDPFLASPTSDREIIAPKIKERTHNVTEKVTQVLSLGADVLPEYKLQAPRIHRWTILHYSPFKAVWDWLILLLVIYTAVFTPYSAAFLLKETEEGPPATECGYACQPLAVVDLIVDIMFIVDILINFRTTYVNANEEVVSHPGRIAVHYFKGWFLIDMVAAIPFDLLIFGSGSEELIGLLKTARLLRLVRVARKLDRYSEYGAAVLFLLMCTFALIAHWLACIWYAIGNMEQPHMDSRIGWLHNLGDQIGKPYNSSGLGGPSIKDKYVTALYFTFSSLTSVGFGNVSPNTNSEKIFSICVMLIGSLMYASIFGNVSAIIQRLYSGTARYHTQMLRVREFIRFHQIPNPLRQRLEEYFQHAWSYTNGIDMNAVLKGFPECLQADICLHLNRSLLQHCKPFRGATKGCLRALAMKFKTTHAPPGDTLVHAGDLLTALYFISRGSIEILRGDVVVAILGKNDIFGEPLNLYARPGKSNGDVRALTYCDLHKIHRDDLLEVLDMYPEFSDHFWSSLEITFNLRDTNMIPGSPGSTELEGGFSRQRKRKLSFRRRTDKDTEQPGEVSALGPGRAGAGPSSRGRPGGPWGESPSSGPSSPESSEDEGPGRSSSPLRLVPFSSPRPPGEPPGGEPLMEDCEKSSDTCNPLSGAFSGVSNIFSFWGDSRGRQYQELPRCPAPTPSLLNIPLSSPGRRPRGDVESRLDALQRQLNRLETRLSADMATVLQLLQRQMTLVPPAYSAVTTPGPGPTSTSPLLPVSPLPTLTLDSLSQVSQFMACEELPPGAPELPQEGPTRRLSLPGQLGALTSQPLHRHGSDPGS
Method: All cell suspensions, buffers, and test compound solutions were at room temperature during the experiment. Briefly, Chinese hamster ovary (CHO) cells stably transfected with hERG (cell line obtained from Cytomyx, UK) were seeded in each well of a PatchPlate™ positioned over a small hole at the bottom of each well to form an electrical seal. The resistance of each seal was measured via a common ground electrode in the intracellular compartment and individual electrodes placed into each of the upper wells. Electrical access to the cell was then achieved by circulating a perforating agent, amphotericin B, underneath the PatchPlate™. The hERG channels were activated by applying a depolarizing step to +40 mV for 5 s and then clamped at […] for 4 s to elicit the hERG tail current, before returning to […] for 0.3 s. […] Each concentration was tested in 4 replicate wells on the PatchPlate™.
All cell suspensions, buffers and test compound solutions were at room temperature during the experiment. (2) The cells used were Chinese hamster ovary (CHO) cells stably transfected with hERG (cell line obtained from Cytomyx, UK). A single cell suspension was prepared in extracellular solution (Dulbecco's phosphate buffered saline with calcium and magnesium pH 7.2) and aliquots added automatically to each well of a PatchPlate™. The cells were then positioned over a small hole at the bottom of each well by applying a vacuum beneath the plate to form an electrical seal. The vacuum was applied through a single compartment common to all wells which was filled with intracellular solution (buffered to pH 7.2 with HEPES). The resistance of each seal was measured via a common ground electrode in the intracellular compartment and individual electrodes placed into each of the upper wells. Electrical access to the cell was then achieved by circulating a perforating agent, amphotericin B, underneath the PatchPlate™. (3) The pre compound hERG current was then measured. […] The hERG channels were then activated by applying a depolarizing step to +40 mV for 5 sec and then clamped at […] for 4 sec to elicit the hERG tail current, before returning to […] for 0.3 sec. […] (5) The IonWorks™ HT instrument automatically added test compound dilutions to the upper wells of the PatchPlate™ from a 96 well microtitre plate. The test compound was left in contact with the cells for 300 sec before recording currents using the same voltage step protocol as in the pre compound scan. […] (6) Each concentration was tested in 4 replicate wells on the PatchPlate™ (maximum of 24 data points).
The percentage inhibition was calculated using the following equation: […]

[2] = Plasma protein binding (RED); conditions: both, human, % Bound of Plasma, Test Article (FL118), 37° C.

Question: With `CCC1(O)C(=O)OCc2c1cc1n(c2=O)Cc2cc3cc4c(cc3nc2-1)OCO4` (stereo not shown) [FL118] as the compound, how does the “binding to other ubiquitin-related proteins” value [1] read?
Answer: did not bind

Question: And the IC50 (hERG)?
Answer: > 1 µM

Question: What about the “effect on hERG activity” value (hERG; CHO cells stably transfected with hERG, FL118 3-1000 nM) of the same compound?
Answer: no inhibitory effects; also recorded: does not exhibit an inhibition of hERG activity

Question: What about the inhibition at 300 s, 0.003 µM (hERG; human, pH 7.2) of the same compound?
Answer: 14.8%

Question: What about the inhibition at 300 s, 0.01 µM (hERG; human, pH 7.2) of the same compound?
Answer: 18.7%

Question: What about the inhibition at 300 s, 0.03 µM (hERG; human, pH 7.2) of the same compound?
Answer: 5.6%

Question: And the inhibition at 300 s, 0.1 µM (hERG; human, pH 7.2)?
Answer: -5.2%

Question: And the inhibition at 300 s, 0.3 µM (hERG; human, pH 7.2)?
Answer: -2.9%

Question: And the inhibition at 300 s, 1 µM (hERG; human, pH 7.2)?
Answer: 19.9%

Question: And the fraction unbound at 4 h, 1 μM [2]?
Answer: < 0.01
